Earlier results in PubChem BioAssay AID1259409 (Chemical Carcinogenesis Research Information System (CCRIS), 2018).

Test system: rodent chemically induced tumor inhibition, incidence and multiplicity
Experiment: CCRIS tumor inhibitor studies

CC(=O)Oc1ccccc1C(=O)O
tumour outcome (control, treated, inhibition, significance) (Carcinogen: AZOXYMETHANE, 25843-45-2, Dose [Inhibitor]: 0, 250 PPM IN DIET FOR 34 WK BEGINNING 1 WK POST LAST CARCINOGEN DOSE (STUDY DURATION: 49 WK), Route [Inhibitor]: ORAL, Species: RAT, Strain/Sex: F344/MALE, Target Tissue: Type of Lesion: COLON: ADENOCARCINOMA, Dose [Carcinogen]: 12 MG/KG BW IN 0.9% SALINE TWICE, Promoter: CHOLIC ACID, 81-25-4): 26%, 19%, 27%, not significant | tumour outcome (control, treated, inhibition, significance) (Carcinogen: AZOXYMETHANE, 25843-45-2, Dose [Inhibitor]: 0, 250 PPM IN DIET FOR 34 WK BEGINNING 1 WK POST LAST CARCINOGEN DOSE (STUDY DURATION: 49 WK), Route [Inhibitor]: ORAL, Species: RAT, Strain/Sex: F344/MALE, Target Tissue: Type of Lesion: COLON: ADENOMA, Dose [Carcinogen]: 12 MG/KG BW IN 0.9% SALINE TWICE, Promoter: CHOLIC ACID, 81-25-4): 81%, 77%, 5%, not significant | tumour outcome (control, treated, inhibition, significance) (Carcinogen: AZOXYMETHANE, 25843-45-2, Dose [Inhibitor]: 0, 250 PPM IN DIET FOR 34 WK BEGINNING 1 WK POST LAST CARCINOGEN DOSE (STUDY DURATION: 49 WK), Route [Inhibitor]: ORAL, Species: RAT, Strain/Sex: F344/MALE, Target Tissue: Type of Lesion: SMALL INTESTINE: ADENOCARCINOMA, Dose [Carcinogen]: 12 MG/KG BW IN 0.9% SALINE TWICE, Promoter: CHOLIC ACID, 81-25-4): 23%, 23%, 0%, not significant | tumour outcome (control, treated, inhibition, significance) (Carcinogen: AZOXYMETHANE, 25843-45-2, Dose [Inhibitor]: 0, 250 PPM IN DIET FOR 34 WK BEGINNING 1 WK POST LAST CARCINOGEN DOSE (STUDY DURATION: 49 WK), Route [Inhibitor]: ORAL, Species: RAT, Strain/Sex: F344/MALE, Target Tissue: Type of Lesion: SMALL INTESTINE: ADENOMA, Dose [Carcinogen]: 12 MG/KG BW IN 0.9% SALINE TWICE, Promoter: CHOLIC ACID, 81-25-4): 17%, 23%, -35%, not significant | tumour outcome (control, treated, inhibition, significance) (Carcinogen: AZOXYMETHANE, 25843-45-2, Dose [Inhibitor]: 0, 400 PPM IN DIET BEGINNING 2 WK PRIOR TO CARCINOGEN TREATMENT AND CONTINUING FOR 52 WK (STUDY DURATION: 54 WK), Route [Inhibitor]: ORAL, Species: RAT, Strain/Sex: F344/MALE, Target Tissue: Type of Lesion: COLON: ADENOCARCINOMA, Dose [Carcinogen]: 15 MG/KG BW 1/WK FOR 2 WK, Promoter: NONE USED): 78%, 47%, 40%, p<0.01 | tumour outcome (control, treated, inhibition, significance) (Carcinogen: DIMETHYLHYDRAZINE HYDROCHLORIDE, 306-37-6, Dose [Inhibitor]: 0, 5 MG/KG 1/D 5D/WK BY GAVAGE AND SAME DOSE IN DIET 2 D/WK FOR 18 WK (STUDY DURATION: 18 WK), Route [Inhibitor]: GAVAGE, ORAL, Species: RAT, Strain/Sex: WISTAR/MALE, Target Tissue: Type of Lesion: COLON: TUMOR, Dose [Carcinogen]: 30 MG/KG/WK FOR 18 WK, Promoter: NONE USED): 100%, 100%, 0%, not significant | tumour outcome (control, treated, inhibition, significance) (Carcinogen: DIMETHYLHYDRAZINE HYDROCHLORIDE, 306-37-6, Dose [Inhibitor]: 0, 30 MG/KG 1/D 5 D/WK BY GAVAGE AND THE SAME DOSE IN DIET 2 D/WK FOR 18 WK (STUDY DURATION: 18 WK), Route [Inhibitor]: GAVAGE, ORAL, Species: RAT, Strain/Sex: WISTAR/MALE, Target Tissue: Type of Lesion: COLON: TUMOR, Dose [Carcinogen]: 30 MG/KG/WK FOR 18 WK, Promoter: NONE USED): 100%, 50%, 50%, p<0.03 | tumour outcome (control, treated, inhibition, significance) (Carcinogen: DIMETHYLHYDRAZINE HYDROCHLORIDE, 306-37-6, Dose [Inhibitor]: 0, 60 MG/KG 1/D 5 D/WK BY GAVAGE AND THE SAME DOSE IN DIET 2 D/WK FOR 18 WK (STUDY DURATION: 18 WK), Route [Inhibitor]: GAVAGE, ORAL, Species: RAT, Strain/Sex: WISTAR/MALE, Target Tissue: Type of Lesion: COLON: TUMOR, Dose [Carcinogen]: 30 MG/KG/WK FOR 18 WK, Promoter: NONE USED): 100%, 25%, 75%, p<0.01 | tumour outcome (control, treated, inhibition, significance) (Carcinogen: N-BUTYL-(4-HYDROXYBUTYL)NITROSAMINE, 3817-11-6, Dose [Inhibitor]: 0, 1 G/KG IN DIET FROM WK 1 THROUGH WK 20 OF STUDY, Route [Inhibitor]: ORAL, Species: RAT, Strain/Sex: WISTAR/MALE, Target Tissue: Type of Lesion: BLADDER: TUMOR, Dose [Carcinogen]: 0.05% IN DRINKING WATER FROM WK 2 THROUGH WK 10 OF STUDY (STUDY DURATION: 32 WK), Promoter: NONE USED): 8/29 (28%), 1/29 (3%), 89%, p<0.05 | tumour outcome (control, treated, inhibition, significance) (Carcinogen: N-BUTYL-N-(4-HYDROXYBUTYL)NITROSAMINE, 3817-11-6, Dose [Inhibitor]: 0, 400 MG/KG DIET FOR 24 WK BEGINNING 1 WK PRIOR TO CARCINOGEN TREATMENT (STUDY DURATION: 24 WK), Route [Inhibitor]: ORAL, Species: MOUSE, Strain/Sex: BDF/MALE, Target Tissue: Type of Lesion: URINARY BLADDER: TRANSITIONAL CELL CARCINOMA, Dose [Carcinogen]: 7.5 MG 1/WK FOR 8 WK, Promoter: NONE USED): 22/75 (29%), 21/74 (28%), 3%, not significant | tumour outcome (control, treated, inhibition, significance) (Carcinogen: N-BUTYL-N-(4-HYDROXYBUTYL)NITROSAMINE, 3817-11-6, Dose [Inhibitor]: 0, 800 MG/KG DIET FOR 24 WK BEGINNING 1 WK PRIOR TO CARCINOGEN TREATMENT (STUDY DURATION: 24 WK), Route [Inhibitor]: ORAL, Species: MOUSE, Strain/Sex: BDF/MALE, Target Tissue: Type of Lesion: URINARY BLADDER: TRANSITIONAL CELL CARCINOMA, Dose [Carcinogen]: 7.5 MG 1/WK FOR 8 WK, Promoter: NONE USED): 22/75 (29%), 22/73 (30%), -3%, not significant | tumour outcome (control, treated, inhibition, significance) (Carcinogen: N-METHYL-N'-NITRO-N-NITROSOGUANIDINE, 70-25-7, Dose [Inhibitor]: FOLLOWING 8 WK CARCINOGEN/NACL REGIMEN, RATS FED DIETS SUPPLEMENTED WITH 1% ASPIRIN FOR 32 WK (STUDY DURATION: 40 WK), Route [Inhibitor]: ORAL, Species: RAT, Strain/Sex: WISTAR/MALE, Target Tissue: Type of Lesion: DUODENUM: ADENOCARCINOMA, Dose [Carcinogen]: 100 MG/L IN DRINKING WATER FOR 8 WK, AND SIMULTANEOUSLY FED DIET SUPPLEMENTED WITH 10% NACL, Promoter: SODIUM CHLORIDE, 7647-14-5): 3/39 (8%), 1/20 (5%), 38%, not significant | tumour outcome (control, treated, inhibition, significance) (Carcinogen: N-METHYL-N'-NITRO-N-NITROSOGUANIDINE, 70-25-7, Dose [Inhibitor]: FOLLOWING 8 WK CARCINOGEN/NACL REGIMEN, RATS FED DIETS SUPPLEMENTED WITH 1% ASPIRIN FOR 32 WK (STUDY DURATION: 40 WK), Route [Inhibitor]: ORAL, Species: RAT, Strain/Sex: WISTAR/MALE, Target Tissue: Type of Lesion: GLANDULAR STOMACH: ADENOCARCINOMA, Dose [Carcinogen]: 100 MG/L IN DRINKING WATER FOR 8 WK, AND SIMULTANEOUSLY FED DIET SUPPLEMENTED WITH 10% NACL, Promoter: SODIUM CHLORIDE, 7647-14-5): 3/39 (8%), 0/20 (0%), 100% not significant | tumour outcome (control, treated, inhibition, significance) (Carcinogen: N-METHYL-N'-NITRO-N-NITROSOGUANIDINE, 70-25-7, Dose [Inhibitor]: FOLLOWING 8 WK CARCINOGEN/NACL REGIMEN, RATS FED DIETS SUPPLEMENTED WITH 1% ASPIRIN FOR 32 WK (STUDY DURATION: 40 WK), Route [Inhibitor]: ORAL, Species: RAT, Strain/Sex: WISTAR/MALE, Target Tissue: Type of Lesion: GLANDULAR STOMACH: PRENEOPLASTIC HYPERPLASIA, Dose [Carcinogen]: 100 MG/L IN DRINKING WATER FOR 8 WK, AND SIMULTANEOUSLY FED DIET SUPPLEMENTED WITH 10% NACL, Promoter: SODIUM CHLORIDE, 7647-14-5): 5/39 (13%), 2/20 (10%), 23%, not significant | tumour outcome (control, treated, inhibition, significance) (Carcinogen: N-NITROSOBIS(2-OXOPROPYL)AMINE, 60599-38-4, Dose [Inhibitor]: 0, 1% IN DIET FOR 27 WK BEGINNING POST LAST CARCINOGEN DOSE (STUDY DURATION: 32 WK), Route [Inhibitor]: ORAL, Species: HAMSTER, Strain/Sex: SYRIAN/FEMALE, Target Tissue: Type of Lesion: PANCREAS: ADENOCARCINOMA, Dose [Carcinogen]: 10 MG/KG 1/WK FOR 5 WK, Promoter: NONE USED): 20/28 (71%), 10/19 (53%), 25%, not calculated | tumour outcome (control, treated, inhibition, significance) (Carcinogen: N-NITROSODIETHYLAMINE, 55-18-5, 2-ACETYLAMINOFLUORENE, 53-93-6, CARBON TETRACHLORIDE, 56-23-5, Carcinogen: N-NITROSODIETHYLAMINE, 55-18-5, 2-ACETYLAMINOFLUORENE, 53-93-6, CARBON TETRACHLORIDE, 56-23-5, Dose [Inhibitor]: 0, 0.75% IN DIET FOR 29 WK ADMINISTERED TO RATS BEARING PERSISTENT NODULES FOLLOWING CARCINOGEN TREATMENT (STUDY DURATIO, Route [Inhibitor]: ORAL, Species: RAT, Strain/Sex: F344/MALE, Target Tissue: Type of Lesion: LIVER: HEPATOCELLULAR CARCINOMA, Dose [Carcinogen]: 200 MG/KG BW DEN ONCE, 0.002% 2-AAF IN DIET FOR 2 WK, 1 MG/KG BW CCL4 MIDWAY IN 2-AAF TREATMENT, Dose [Carcinogen]: 200 MG/KG BW DEN ONCE, 0.002% 2-AAF IN DIET FOR 2 WK, 1 MG/KG BW CCL4 MIDWAY IN 2-AAF TREATMENT, Promoter: NONE USED): 7/8 (88%), 5/13 (38%), 57%, not significant | tumour outcome (control, treated, inhibition, significance) (Carcinogen: N-NITROSODIETHYLAMINE, 55-18-5, 2-ACETYLAMINOFLUORENE, 53-93-6, CARBON TETRACHLORIDE, 56-23-5, Carcinogen: N-NITROSODIETHYLAMINE, 55-18-5, 2-ACETYLAMINOFLUORENE, 53-93-6, CARBON TETRACHLORIDE, 56-23-5, Dose [Inhibitor]: 0, 0.75% IN DIET FOR 29 WK ADMINISTERED TO RATS BEARING PERSISTENT NODULES FOLLOWING CARCINOGEN TREATMENT (STUDY DURATIO, Route [Inhibitor]: ORAL, Species: RAT, Strain/Sex: F344/MALE, Target Tissue: Type of Lesion: LIVER: HEPATOCELLULAR CARCINOMA, Dose [Carcinogen]: 200 MG/KG BW DEN ONCE, 0.002% 2-AAF IN DIET FOR 2 WK, 1 ML/KG BW CCL4 MIDWAY IN 2-AAF TREATMENT, Dose [Carcinogen]: 200 MG/KG BW DEN ONCE, 0.002% 2-AAF IN DIET FOR 2 WK, 1 ML/KG BW CCL4 MIDWAY IN 2-AAF TREATMENT, Promoter: PHENOBARBITAL, 50-06-6): 12/12 (100%), 12/14 (86%), 14%, not significant | tumour outcome (control, treated, inhibition, significance) (Carcinogen: N-[4-(5-NITRO-2-FURYL)-2-THIAZOLYL]FORMAMIDE, 24554-26-5, Dose [Inhibitor]: 0.5% IN DIET FOR 2 D PRIOR TO AND FOR 7 D AFTER CARCINOGEN ADMINISTRATION (13 WK TOTAL) FOLLOWED BY 56 WK ON CONTROL DIE, Route [Inhibitor]: ORAL, Species: RAT, Strain/Sex: FISCHER/MALE, Target Tissue: Type of Lesion: URINARY BLADDER: CARCINOMA, Dose [Carcinogen]: 0.2% IN DIET SIMULTANEOUSLY WITH INHIBITOR FOR 12 WK, Promoter: NONE USED): 18/21 (86%), 10/27 (37%), 57%, p<0.001
